Data taken from US12479816B2, “20-HETE formation inhibitors” (UNIVERSITY OF PITTSBURGH—OF THE COMMONWEALTH SYSTEM OF …, priority 2019, dated 2025).
In brackets after ≈: the same amount, converted by molar mass.

How the values were obtained:
[1] = test system: 20-HETE formation (CYP4) in RLM; test: Inhibition of 20-HETE formation at 250 or 500 nM in RLM microsomal incubations; format: biochemical, rat; conditions: 500 nM compound; RLM 300 μg/ml
Method: (§1) To screen the inhibitory effects against 20-HETE formation, compounds were screened in HLM, RLM, RKM and rCYP4F2 microsomal incubations. Compounds dissolved in either 100% methanol or 100% DMSO to yield 10 mM stock solution. Microsomal incubations containing HLM, RLM, RKM (300 μg/ml) or rCYP4F2 (25 pmol/mL), AA (100 μM), NADPH (1 mM) treated with test compounds at various concentrations (500 nM or 250 nM) in a 1 ml total volume in incubation buffer (0.12 M potassium phosphate buffer containing 5 mM magnesium chloride). Reaction was started by adding NADPH to the incubates and was carried out at 37° C. in a shaking water bath for 20 min. Reaction was stopped by placing tubes on ice, followed by adding 125 μl 20-HETE-d6 as internal standard to each sample. Microsomal incubations were extracted with 3 ml ethyl ether twice, dried down under nitrogen gas and reconstituted in 125 μl 80:20 methanol:deionized H2O for analysis. 20-HETE formation was quantified using a validated UPLC-MS/MS assay and normalized by vehicle group. Each compound had three replications (n=3). Vehicle group was used as control to calculate percentage of 20-HETE formation rate. HET0016 (250 nM) was used as positive control. Incubates without NADPH group served as the negative control. An Acquity ultra performance LC autosampler (Waters, Milford, MA) was used to isolate 20-HETE on an UPLC BEH C18, 1.7 μm (2.1×100 mm) reversed-phase column (Waters, Milford, MA) protected by a guard column (2.1×5 mm; Waters, Milford, MA) of the same packing material. Column temperature was maintained at 55° C. Mobile phases consisted of 0.005% acetic acid, 5% acetonitrile in deionized water (A) and 0.005% acetic acid in acetonitrile (B). The flow rate for mobile phases is 0.5 ml/min. The initial mixture of mobile phase was 65:35 of A and B. Mobile phase B increased at 0.4 minutes after injection from 35% to 70% in a linear gradient over 4 minutes, and again increased to 95% over 0.5 minutes where it remained for 0.3 minutes. This was followed by a linear return to initial conditions over 0.1 minutes with a 1.5 minute pre-equilibration period prior to the next sample run. Total run time was 6.4 minutes for each injection. Injection volumes were 7.5 μl. Mass spectrometric analysis was carried out using a TSQ Quantum Ultra (Thermo Fisher Scientific, San Jose, CA) triple quadrupole mass spectrometer using heated electrospray ionization (HESI). Mass spectrometer was operated in negative selective reaction monitoring (SRM) mode with unit resolutions at both Q1 and Q3 set at 0.70 Da full width at half maximum. Scan time was set at 0.01 s and collision gas pressure was 1.3 mTorr. Quantitation of 20-HETE by SRM was performed by monitoring the m/z. Analytical data was acquired and analyzed using Xcaliber 3.0 data system (ThermoFinnigan, San Jose, CA).

rCYP4F2 = target: T1, rCYP4F2 (Homo sapiens, UniProt P78329); test: Inhibition of 20-HETE formation at 250 or 500 nM in rCYP4F2 incubations; format: biochemical; conditions: 500 nM compound; rCYP4F2 25 pmol/mL; read-out: rCYP4F2 % inh. @ 500 nM
T1 sequence (P78329 5-520): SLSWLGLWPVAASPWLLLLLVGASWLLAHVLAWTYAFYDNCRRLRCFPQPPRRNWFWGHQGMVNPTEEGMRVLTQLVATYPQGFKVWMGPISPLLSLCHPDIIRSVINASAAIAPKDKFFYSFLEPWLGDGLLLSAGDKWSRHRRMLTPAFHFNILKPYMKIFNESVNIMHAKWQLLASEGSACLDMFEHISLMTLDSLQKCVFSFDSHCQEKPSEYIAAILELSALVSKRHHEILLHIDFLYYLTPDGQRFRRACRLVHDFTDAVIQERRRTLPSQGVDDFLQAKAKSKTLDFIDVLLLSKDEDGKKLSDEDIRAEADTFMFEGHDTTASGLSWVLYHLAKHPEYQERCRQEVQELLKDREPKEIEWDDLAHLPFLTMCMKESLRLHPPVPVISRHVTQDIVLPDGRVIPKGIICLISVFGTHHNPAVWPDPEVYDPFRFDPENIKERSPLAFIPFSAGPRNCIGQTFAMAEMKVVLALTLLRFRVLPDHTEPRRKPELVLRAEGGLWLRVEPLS
Method: as §1

[2] = test system: 20-HETE formation (CYP4) in HLM; test: Inhibition of 20-HETE formation at 250 or 500 nM in HLM microsomal incubations; format: biochemical, human; conditions: 500 nM compound; HLM 300 μg/ml, AA 100 μM, 20 min
Method: as §1

[3] = Turbidometric solubility determination; format: physicochemical; conditions: PBS with 1% DMSO, aqueous buffer, kinetic from dmso stock, room temperature, OD620, read-out: Max Solub
Method: Solubility determinations shown in Table 3 were obtained turbidometrically and in a manner similar to the one described in Perez et al., J. Biomol. Screen, 2015, 20(2), 254-64. The method requires small volumes of 100× stock concentration drug solution to be prepared in DMSO 0, 0.23, 0.47, 0.94, 1.88, 3.75, 7.5, 15.0, 30.0 and […]. The stock drug concentrations are then diluted 1:100 added into triplicate wells containing PBS in a clear bottom 384 well microtiter to achieve final testing concentrations of 0, 2.3, 4.7, 9.4, 18.8, 37.5, 75, 150, 300, 600 μM in 1% DMSO. The plate is allowed to equilibrate with constant shaking for 2 hours at room temperature. The plate is then placed in a SpectroMax V plate reader to measure absorbance at 620 nm. Increase in absorbance is evident in test wells which precipitation of the compound is evident. The plot of OD620 vs. drug concentration is used to calculate the maximum solubility limit as determined by a statistically significant increase in absorbance above the background levels.

Row | SMILES | RLM % inh. @ 500 nM [1] [%] | inhibition at 0.5 µM (rCYP4F2) [%] | HLM % inh. @ 500 nM [2] [%] | solubility at 2 h [3] [µM]
1 | COc1ccc(C2CCN(c3ccn[nH]3)CC2)c(Cl)c1 [Compound 66, 4-(2-Chloro-4-methoxyphenyl)-1-(1H-pyrazol-5-yl)piperidine] | 0.00 | 58 | 36 | 133 (≈ 38.8 µg/mL)
2 | COc1ccc(C2CCN(c3ccn[nH]3)CC2)cc1Cl [Compound 67, 4-(3-Chloro-4-methoxyphenyl)-1-(1H-pyrazol-5-yl)piperidine] | 30.20 | 90.9 | 83.2 | 205 (≈ 59.8 µg/mL)
3 | CC(=O)N(C)c1ccc(C2CCN(c3ccn[nH]3)CC2)c(F)c1 [Compound 71, N-(4-(1-(1H-Pyrazol-5-yl)piperidin-4-yl)-3-fluorophenyl)-N-methylacetamide] | 25.00 | 52.2 | 82 | > 600
4 | COc1cc(F)cc(C2CCN(c3cn[nH]c3)CC2)c1 [Compound 72, 4-(3-Fluoro-5-methoxyphenyl)-1-(1H-pyrazol-4-yl)piperidine] | 11.00 | 77 | 77 | 234 (≈ 64.4 µg/mL)
5 | FC(F)(F)c1cncc(C2CCN(c3ccn[nH]3)CC2)c1 [Compound 103, 3-(1-(1H-Pyrazol-5-yl)piperidin-4-yl)-5-(trifluoromethyl)pyridine] | 0.00 | 0 | 0.00 | 
6 | O=S1(=O)CCc2cc(C3CCN(c4ccn[nH]4)CC3)ccc21 [Compound 106, 5-(1-(1H-Pyrazol-5-yl)piperidin-4-yl)-2,3-dihydrobenzo[b]thiophene 1,1-dioxide] | 0.00 | 0 | 0.00 | 
7 | O=[N+]([O-])c1ccc(C2CCN(c3ccn[nH]3)CC2)cc1 [Compound 112, 4-(4-Nitrophenyl)-1-(1H-pyrazol-5-yl)piperidine] | 20.30 | 41.3 | 21.90 | 
8 | O=C1CCCN1Cc1ccc(C2CCN(c3cn[nH]c3)CC2)c(F)c1 [Compound 118, 1-(4-(1-(1H-Pyrazol-4-yl)piperidin-4-yl)-3-fluorobenzyl)pyrrolidin-2-one] |  |  |  | 443 (≈ 152 µg/mL)
9 | Fc1cc(C2CCN(c3cn[nH]c3)CC2)ccc1N1CCOCC1 [Compound 123, 4-(4-(1-(1H-Pyrazol-4-yl)piperidin-4-yl)-2-fluorophenyl)morpholine] |  |  |  | 85.5 (≈ 28.2 µg/mL)
10 | Fc1cc(N2CCOCC2)ccc1C1CCN(c2cn[nH]c2)CC1 [Compound 124, 4-(4-(1-(1H-Pyrazol-4-yl)piperidin-4-yl)-3-fluorophenyl)morpholine] |  |  |  | 26.6 (≈ 8.79 µg/mL)
11 | COc1ccc(CC2CCN(c3cn[nH]c3)CC2)cc1 [Compound 127, 4-[(4-Methoxyphenyl)methyl]-1-(1H-pyrazol-4-yl)piperidine] |  |  |  | 151 (≈ 41 µg/mL)

The next lines start with the values.

Row | RLM % inh. @ 500 nM [1] [%] | inhibition at 0.5 µM (rCYP4F2) [%] | HLM % inh. @ 500 nM [2] [%] | solubility at 2 h [3] [µM] | SMILES
12 | 61.00 | 81.3 | 77.5 | 121 (≈ 31.7 µg/mL) | Clc1cccc(C2CCN(c3cn[nH]c3)CC2)c1 [Compound 61, 4-(3-Chlorophenyl)-1-(1H-pyrazol-4-yl)piperidine]
13 | 0.00 | 45 | 60.0 | 42.4 (≈ 11.1 µg/mL) | Clc1ccc(C2CCN(c3ccn[nH]3)CC2)cc1 [Compound 62, 4-(4-chlorophenyl)-1-(1H-pyrazol-5-yl)piperidine]
14 | 10.30 | 73.8 | 74.3 | 13.3 (≈ 3.48 µg/mL) | Clc1ccc(C2CCN(c3cn[nH]c3)CC2)cc1 [Compound 63, 4-(4-chlorophenyl)-1-(1H-pyrazol-4-yl)piperidine]
15 | 0.00 | 35 | 57.00 | 18.7 (≈ 5.46 µg/mL) | COc1ccc(C2CCN(c3cn[nH]c3)CC2)c(Cl)c1 [Compound 65, 4-(2-Chloro-4-methoxyphenyl)-1-(1H-pyrazol-4-yl)piperidine]
16 | 35.70 | 80.5 | 84.8 | 109 (≈ 30.2 µg/mL) | Fc1ccc(SC2CCN(c3cn[nH]c3)CC2)cc1 [Compound 70, 4-((4-Fluorophenyl)thio)-1-(1H-pyrazol-4-yl)piperidine]
17 | 17.00 | 78 | 77.30 |  | Nc1ccc(C2CCN(c3cn[nH]c3)CC2)cc1 [Compound 105, 4-(1-(1H-pyrazol-4-yl)piperidin-4-yl)aniline]
18 | 22.30 | 60.1 | 43.5 |  | O=[N+]([O-])c1ccc(C2CCN(c3cn[nH]c3)CC2)cc1 [Compound 111, 4-(4-Nitrophenyl)-1-(1H-pyrazol-4-yl)piperidine]
19 | 14.30 | 67.6 | 30.5 |  | CS(=O)(=O)Nc1ccc(C2CCN(c3cn[nH]c3)CC2)cc1 [Compound 113, N-(4-(1-(1H-pyrazol-4-yl)piperidin-4-yl)phenyl)methanesulfonamide]
20 |  |  |  | 63 | Cl.O=C1CCCN1c1ccc(C2CCN(c3cn[nH]c3)CC2)cc1 [Compound 119, 1-(4-(1-(1H-Pyrazol-4-yl)piperidin-4-yl)phenyl)pyrrolidin-2-one hydrochloride]
21 |  |  |  | 122 (≈ 39.9 µg/mL) | c1cc(C2CCN(c3cn[nH]c3)CC2)ccc1CN1CCOCC1 [Compound 121, 4-(4-(1-(1H-Pyrazol-4-yl)piperidin-4-yl)benzyl)morpholine]
22 |  |  |  | 247 (≈ 80.7 µg/mL) | O=C1COCCN1c1ccc(C2CCN(c3cn[nH]c3)CC2)cc1 [Compound 122, 4-(4-(1-(1H-Pyrazol-4-yl)piperidin-4-yl)phenyl)morpholin-3-one]
23 |  |  |  | > 600 | C[C@H](c1ccc(C2CCN(c3cn[nH]c3)CC2)cc1)N1CCCC1=O [Compound 125, (R)-1-(1-(4-(1-(1H-pyrazol-4-yl)piperidin-4-yl)phenyl)ethyl)pyrrolidin-2-one]
24 |  |  |  | > 600 | C[C@@H](c1ccc(C2CCN(c3cn[nH]c3)CC2)cc1)N1CCCC1=O [Compound 126, (S)-1-(1-(4-(1-(1H-pyrazol-4-yl)piperidin-4-yl)phenyl)ethyl)pyrrolidin-2-one]
